Laboratory results: patent publication US8188078B2 (Sanofi-Aventis, priority 2007, dated 2012)

Columns and labels:
[1] = biological target: T1, c-MET (Homo sapiens, UniProt P08581); assay: Test A: HTRF Met test in 96-well format; assay type: biochemical
T1 construct: The recombinant DNA His-Tev-MET (956-1390) in pFastBac(Invitrogen); His (N, cleaved yes); Tev (TEV protease site) (N, cleaved yes); made in house; host or cells: SF21 insect cells (baculovirus, pFastBac)
In short: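 The kinase was the Sf21-expressed MET cytoplasmic domain (956–1390), His tag removed, used at 5 nM with compound (0.17 nM–10 µM, 3% DMSO) in 10 mM MOPS pH 7.4. Poly-GAT 1 µg/ml, 10 µM ATP and 5 mM MgCl2 reacted 10 min at RT. After an EDTA stop, phosphotyrosine was detected by HTRF (665/620 ratio).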

[2] = system: MKN45 cells; assay: Test D: cellular proliferation by 14C-thymidine pulse, MKN45 cells; assay type: cell-based; conditions: Homo sapiens, MKN-45, cellular proliferation by 14C-thymidine pulse; cell line not stated (HCT116 or MKN45)
In short: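 MKN45 cells (7500/well, RPMI + 10% foetal calf serum) treated with 10 concentrations, 10000 to 0.3 nM in 3-fold steps, duplicate. 14C-thymidine (0.1 μCi/well) added at 72 h; incorporation counted after 24 h pulse, 96 h total treatment.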

T1 sequence (P08581 956-1390): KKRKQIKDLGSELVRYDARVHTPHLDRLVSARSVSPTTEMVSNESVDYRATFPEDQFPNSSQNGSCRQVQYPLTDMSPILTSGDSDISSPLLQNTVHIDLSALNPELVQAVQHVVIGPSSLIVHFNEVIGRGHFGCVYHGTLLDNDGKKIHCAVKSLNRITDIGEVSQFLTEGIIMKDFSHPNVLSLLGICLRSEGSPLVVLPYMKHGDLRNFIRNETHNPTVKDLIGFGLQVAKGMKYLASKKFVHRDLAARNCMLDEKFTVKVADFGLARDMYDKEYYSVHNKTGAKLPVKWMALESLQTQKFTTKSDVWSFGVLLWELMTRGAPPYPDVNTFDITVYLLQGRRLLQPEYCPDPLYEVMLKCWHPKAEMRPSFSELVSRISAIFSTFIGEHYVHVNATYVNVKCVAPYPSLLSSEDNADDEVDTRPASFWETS

| SMILES | IC50 [1] [nM] | IC50 [2] [nM] | melting point [°C] |
| --- | --- | --- | --- |
| CC(Oc1cc2sc(NC(=O)NCCCN3CCCC3=O)nc2cc1F)c1c(F)ccc(Cl)c1Cl (stereo not drawn) [Example 114, 1-{6-[1-(2,3-dichloro-6-fluorophenyl)ethoxy]-5-fluoro-1,3-benzothiazol-2-yl}-3-[3-(2-oxopyrrolidin-1-yl)propyl]urea] | < 100 | 500 to 10000 | 195 |
| CC(Oc1cc2sc(NC(=O)NCCN3CCCC3)nc2cc1F)c1c(F)ccc(Cl)c1Cl (stereo not drawn) [Example 118, 1-{6-[1-(2,3-dichloro-6-fluorophenyl)ethoxy]-5-fluoro-1,3-benzothiazol-2-yl}-3-[2-(pyrrolidin-1-yl)ethyl]urea] | < 100 | 500 to 10000 | 191 |
| CNCCCNC(=O)Nc1nc2cc(F)c(OC(C)c3c(Cl)ccc(F)c3Cl)cc2s1 (stereo not drawn) [Example 127, 1-{6-[1-(2,6-dichloro-3-fluorophenyl)ethoxy]-5-fluoro-1,3-benzothiazol-2-yl}-3-[3-(methylamino)propyl]urea] | < 100 | 500 to 10000 | 183 |
| CC(Oc1cc2sc(NC(=O)NCCN3CCOCC3)nc2cc1Cl)c1c(Cl)ccc(F)c1Cl (stereo not drawn) [Example 106, 1-{5-chloro-6-[1-(2,6-dichloro-3-fluorophenyl)ethoxy]-1,3-benzothiazol-2-yl}-3-[2-(morpholin-4-yl)ethyl]urea] | < 100 | 500 to 10000 | 196 to 198 |
